The results in this text go back to article PMC5218480 (PLoS ONE, 2017).

The test system of the experiment is MV-4-11 cells. The experiment in a line: Gene expression microarray analysis (Affymetrix PrimeView) and GSEA. The experiment is classed as cell-based, human. The arrangement: RFU PODN (11730768_x_at) / Fold change /veh PODN (11730768_x_at) / RFU LINC00158 (11744669_a_at) / Fold change /veh LINC00158 (11744669_a_at) / RFU DUSP10 (11751237_a_at) / Fold change /veh DUSP10 (11751237_a_at) / RFU ID3 (11757404_x_at) / Fold change /veh ID3 (11757404_x_at) / RFU PLEKHG5 (11737974_s_at) / Fold change /veh PLEKHG5 (11737974_s_at) / RFU LRRC4B (11730491_at) / Fold change /veh LRRC4B (11730491_at) / RFU GIMAP4 (11747438_a_at) / Fold change /veh GIMAP4 (11747438_a_at) / RFU KRT8 (11758183_x_at) / Fold change /veh KRT8 (11758183_x_at) / RFU CNN1 (11734310_a_at) / Fold change /veh CNN1 (11734310_a_at) / RFU VPS37D (11726825_at) / Fold change /veh VPS37D (11726825_at) / RFU C10orf10 (11716522_x_at) / Fold change /veh C10orf10 (11716522_x_at) / RFU KIR2DL2 /// KIR2DL4 /// KIR2DL5A /// KIR2DL5B /// KIR2DS1 /// KIR2DS2 /// KIR2DS3 /// KIR2DS4 /// KIR3DL3 /// KIR3DL3 /// KIR3DS1 (11738374_at) / Fold change /veh KIR2DL2 /// KIR2DL4 /// KIR2DL5A /// KIR2DL5B /// KIR2DS1 /// KIR2DS2 /// KIR2DS3 /// KIR2DS4 /// KIR3DL3 /// KIR3DL3 /// KIR3DS1 (11738374_at) / RFU C1QL1 (11718748_at) / Fold change /veh C1QL1 (11718748_at) / RFU TMPRSS4 (11747572_a_at) / Fold change /veh TMPRSS4 (11747572_a_at) / RFU HAMP (11756126_x_at) / Fold change /veh HAMP (11756126_x_at) / RFU RNFT2 (11725882_a_at) / Fold change /veh RNFT2 (11725882_a_at) / RFU NR4A2 (11747474_a_at) / Fold change /veh NR4A2 (11747474_a_at) / RFU ABCC12 (11746883_a_at) / Fold change /veh ABCC12 (11746883_a_at) / RFU TMEM136 (11760407_x_at) / Fold change /veh TMEM136 (11760407_x_at) / RFU CLDN22 /// WWC2 (11732394_at) / Fold change /veh CLDN22 /// WWC2 (11732394_at) / RFU HLA-DPB1 (11760878_x_at) / Fold change /veh HLA-DPB1 (11760878_x_at) / RFU SPINT1 (11716480_a_at) / Fold change /veh SPINT1 (11716480_a_at) / RFU GAP43 (11754022_s_at) / Fold change /veh GAP43 (11754022_s_at) / RFU A4GNT (11735810_at) / Fold change /veh A4GNT (11735810_at) / RFU PRB3 (11715151_x_at) / Fold change /veh PRB3 (11715151_x_at) / RFU TUBB4B (11761932_at) / Fold change /veh TUBB4B (11761932_at) / RFU CAPN14 (11732068_a_at) / Fold change /veh CAPN14 (11732068_a_at) / RFU TMCC2 (11721928_a_at) / Fold change /veh TMCC2 (11721928_a_at) / RFU IRGQ (11745062_a_at) / Fold change /veh IRGQ (11745062_a_at) / RFU FAM174B (11720279_a_at) / Fold change /veh FAM174B (11720279_a_at) / RFU TMPRSS4 (11748680_a_at) / Fold change /veh TMPRSS4 (11748680_a_at) / RFU FAM212B (11763350_a_at) / Fold change /veh FAM212B (11763350_a_at) / RFU PLEKHG5 (11743358_a_at) / Fold change /veh PLEKHG5 (11743358_a_at) / RFU ZSCAN30 (11745921_a_at) / Fold change /veh ZSCAN30 (11745921_a_at) / RFU CMKLR1 (11741424_a_at) / Fold change /veh CMKLR1 (11741424_a_at) / RFU LOC101060620 /// MAPK8IP1 (11723275_at) / Fold change /veh LOC101060620 /// MAPK8IP1 (11723275_at) / RFU SPTSSB (11747773_x_at) / Fold change /veh SPTSSB (11747773_x_at) / RFU PRSS12 (11739890_at) / Fold change /veh PRSS12 (11739890_at) / RFU BIN1 (11741810_x_at) / Fold change /veh BIN1 (11741810_x_at) / RFU WNT11 (11732464_a_at) / Fold change /veh WNT11 (11732464_a_at) / RFU C10orf10 (11716521_a_at) / Fold change /veh C10orf10 (11716521_a_at) / RFU C5orf56 (11738089_at) / Fold change /veh C5orf56 (11738089_at) / RFU CYB561 (11721691_x_at) / Fold change /veh CYB561 (11721691_x_at) / RFU ANKRD19P (11752326_a_at) / Fold change /veh ANKRD19P (11752326_a_at) / RFU OR2T12 /// OR2T33 /// OR2T8 (11738714_s_at) / Fold change /veh OR2T12 /// OR2T33 /// OR2T8 (11738714_s_at) / RFU VCAN (11748164_a_at) / Fold change /veh VCAN (11748164_a_at) / RFU JSRP1 (11732532_at) / Fold change /veh JSRP1 (11732532_at) / RFU KRTAP10-11 (11738290_x_at) / Fold change /veh KRTAP10-11 (11738290_x_at) / RFU MYO3A (11730013_a_at) / Fold change /veh MYO3A (11730013_a_at) / RFU EBF3 (11725865_a_at) / Fold change /veh EBF3 (11725865_a_at) / RFU CAMK2N1 (11719241_x_at) / Fold change /veh CAMK2N1 (11719241_x_at) / RFU C5orf56 (11738088_a_at) / Fold change /veh C5orf56 (11738088_a_at) / RFU OLFML3 (11715873_a_at) / Fold change /veh OLFML3 (11715873_a_at) / RFU LOC100653217 /// NTM (11731650_a_at) / Fold change /veh LOC100653217 /// NTM (11731650_a_at) / RFU MAPK11 (11762145_a_at) / Fold change /veh MAPK11 (11762145_a_at) / RFU FIZ1 (11724087_x_at) / Fold change /veh FIZ1 (11724087_x_at) / RFU OASL (11726364_x_at) / Fold change /veh OASL (11726364_x_at) / RFU SOX15 (11748057_x_at) / Fold change /veh SOX15 (11748057_x_at) / RFU CD79A (11719716_a_at) / Fold change /veh CD79A (11719716_a_at) / RFU HIST1H1D (11736915_at) / Fold change /veh HIST1H1D (11736915_at) / RFU CASKIN2 (11723855_a_at) / Fold change /veh CASKIN2 (11723855_a_at) / RFU LOC730098 (11760151_x_at) / Fold change /veh LOC730098 (11760151_x_at) / RFU OR4N2 (11742367_at) / Fold change /veh OR4N2 (11742367_at) / RFU PRRT2 (11749266_a_at) / Fold change /veh PRRT2 (11749266_a_at) / RFU SNX32 (11753110_a_at) / Fold change /veh SNX32 (11753110_a_at) / RFU CDHR5 (11726645_a_at) / Fold change /veh CDHR5 (11726645_a_at) / RFU RCAN1 (11760418_a_at) / Fold change /veh RCAN1 (11760418_a_at) / RFU FAM167A (11723789_a_at) / Fold change /veh FAM167A (11723789_a_at) / RFU FAM26E (11764081_at) / Fold change /veh FAM26E (11764081_at) / RFU ISYNA1 (11749810_s_at) / Fold change /veh ISYNA1 (11749810_s_at) / RFU ACY1 (11761880_at) / Fold change /veh ACY1 (11761880_at) / RFU 11764098_at / Fold change /veh 11764098_at / RFU SAMD14 (11745864_x_at) / Fold change /veh SAMD14 (11745864_x_at) / RFU NPB (11741838_a_at) / Fold change /veh NPB (11741838_a_at) / RFU TMPRSS6 (11731388_a_at) / Fold change /veh TMPRSS6 (11731388_a_at) / RFU KRTAP10-2 (11738614_at) / Fold change /veh KRTAP10-2 (11738614_at) / RFU ARHGAP8 /// PRR5-ARHGAP8 (11727945_x_at) / Fold change /veh ARHGAP8 /// PRR5-ARHGAP8 (11727945_x_at) / RFU KRTAP5-7 /// NADSYN1 (11734609_at) / Fold change /veh KRTAP5-7 /// NADSYN1 (11734609_at) / RFU RASL12 (11751679_a_at) / Fold change /veh RASL12 (11751679_a_at) / RFU CDKN2B (11736163_a_at) / Fold change /veh CDKN2B (11736163_a_at) / RFU PRF1 (11729649_at) / Fold change /veh PRF1 (11729649_at) / RFU, ZNF638 /// ZNF638-IT1 / Fold change vs veh, ZNF638 /// ZNF638-IT1 / RFU, PANK3 / Fold change vs veh, PANK3 / RFU, SH3YL1 / Fold change vs veh, SH3YL1 / RFU, ZEB2 / Fold change vs veh, ZEB2 / RFU, NRIP1 / Fold change vs veh, NRIP1 / RFU, PTTG1IP / Fold change vs veh, PTTG1IP / RFU, CAPN2 / Fold change vs veh, CAPN2 / RFU, MED14 / Fold change vs veh, MED14 / RFU, SNORA58 / Fold change vs veh, SNORA58 / RFU, C1orf63 / Fold change vs veh, C1orf63 / RFU, LRRFIP1 / Fold change vs veh, LRRFIP1 / RFU, NDUFAF7 / Fold change vs veh, NDUFAF7 / RFU, SLC12A2 / Fold change vs veh, SLC12A2 / RFU, IBTK / Fold change vs veh, IBTK / RFU, ESF1 / Fold change vs veh, ESF1 / Fold change vs veh, TMEM50B / RFU, TAOK1 / Fold change vs veh, TAOK1 / RFU, ACBD3 / Fold change vs veh, ACBD3 / RFU, TMA16 / Fold change vs veh, TMA16 / RFU, RWDD3 / Fold change vs veh, RWDD3 / RFU, BCAT1 / Fold change vs veh, BCAT1 / RFU, EDEM3 / Fold change vs veh, EDEM3 / RFU, TMEM33 / Fold change vs veh, TMEM33 / RFU, WDR75 / Fold change vs veh, WDR75 / RFU, AHCTF1 / Fold change vs veh, AHCTF1 / RFU, TFRC / Fold change vs veh, TFRC / RFU, ZDHHC17 / Fold change vs veh, ZDHHC17 / RFU, NOM1 / Fold change vs veh, NOM1 / RFU, ARL8B / Fold change vs veh, ARL8B / RFU, ZBTB11 / Fold change vs veh, ZBTB11 / RFU, TAMM41 / Fold change vs veh, TAMM41 / RFU, KIAA1704 /// LOC100996395 / Fold change vs veh, KIAA1704 /// LOC100996395 / RFU, ING1 / Fold change vs veh, ING1 / RFU, TRMT61B / Fold change vs veh, TRMT61B / RFU, FUBP3 / Fold change vs veh, FUBP3 / RFU, TP53 / Fold change vs veh, TP53 / RFU, TNKS2 / Fold change vs veh, TNKS2 / RFU, ZFP14 / Fold change vs veh, ZFP14 / RFU, ACTR2 / Fold change vs veh, ACTR2 / RFU, PPP3R1 / Fold change vs veh, PPP3R1 / RFU, PIK3R1 / Fold change vs veh, PIK3R1 / RFU, HNRNPA1 / Fold change vs veh, HNRNPA1 / RFU, RNF170 / Fold change vs veh, RNF170 / RFU, ZNF28 / Fold change vs veh, ZNF28 / RFU, RNGTT / Fold change vs veh, RNGTT / RFU, OGT / Fold change vs veh, OGT / RFU, BRD1 / Fold change vs veh, BRD1 / RFU, MARS / Fold change vs veh, MARS / RFU, ZNF655 / Fold change vs veh, ZNF655 / RFU, FAHD1 / Fold change vs veh, FAHD1 / RFU, BDP1 / Fold change vs veh, BDP1 / RFU, LRRCC1 / Fold change vs veh, LRRCC1 / RFU, ARID1A / Fold change vs veh, ARID1A / RFU, ZNF146 / Fold change vs veh, ZNF146 / RFU, ZNF330 / Fold change vs veh, ZNF330 / RFU, GPN3 / Fold change vs veh, GPN3 / RFU, C9orf123 / Fold change vs veh, C9orf123 / RFU, N4BP2L2 / Fold change vs veh, N4BP2L2 / RFU, ARFIP1 / Fold change vs veh, ARFIP1 / RFU, FAM179B / Fold change vs veh, FAM179B / RFU, BCL10 / Fold change vs veh, BCL10 / RFU, UHRF1BP1L / Fold change vs veh, UHRF1BP1L / RFU, BET1 / Fold change vs veh, BET1 / RFU, CNOT2 / Fold change vs veh, CNOT2 / RFU, ZNF268 / Fold change vs veh, ZNF268 / Fold change vs veh, ZNF507 / RFU, DGCR2 / Fold change vs veh, DGCR2 / RFU, WDSUB1 / Fold change vs veh, WDSUB1 / Fold change vs veh, HSP90B1 /// MIR3652 / RFU, ADSS / Fold change vs veh, ADSS / RFU, GK / Fold change vs veh, GK / RFU, ZNF148 / Fold change vs veh, ZNF148 / RFU, TAF9 / Fold change vs veh, TAF9 / RFU, SLC1A5 / Fold change vs veh, SLC1A5 / RFU, SLMO2 / Fold change vs veh, SLMO2 / RFU, ABCC4 / Fold change vs veh, ABCC4 / RFU, LOC101060439 /// RAP1B / Fold change vs veh, LOC101060439 /// RAP1B / RFU, RFX7 / Fold change vs veh, RFX7 / RFU, GTPBP10 / Fold change vs veh, GTPBP10 / RFU, CNEP1R1 / Fold change vs veh, CNEP1R1 / RFU, BIVM-ERCC5 /// ERCC5 / Fold change vs veh, BIVM-ERCC5 /// ERCC5 / RFU, ILF3 / Fold change vs veh, ILF3 / RFU 11762660_at / Fold change /veh 11762660_at / RFU VCAN (11757783_s_at) / Fold change /veh VCAN (11757783_s_at) / RFU DDX43 (11728927_at) / Fold change /veh DDX43 (11728927_at) / RFU KRT8 (11758188_x_at) / Fold change /veh KRT8 (11758188_x_at) / RFU NKD1 (11759106_at) / Fold change /veh NKD1 (11759106_at) / RFU SRD5A1 (11742802_a_at) / Fold change /veh SRD5A1 (11742802_a_at) / RFU TPSAB1 /// TPSB2 (11721975_s_at) / Fold change /veh TPSAB1 /// TPSB2 (11721975_s_at) / RFU GSTM3 (11746129_a_at) / Fold change /veh GSTM3 (11746129_a_at) / RFU IL23R (11737362_x_at) / Fold change /veh IL23R (11737362_x_at) / RFU TMEM51 (11727254_a_at) / Fold change /veh TMEM51 (11727254_a_at) / RFU PIWIL2 (11732686_x_at) / Fold change /veh PIWIL2 (11732686_x_at) / RFU ORM1 (11744905_x_at) / Fold change /veh ORM1 (11744905_x_at) / RFU CCDC152 (11743942_at) / Fold change /veh CCDC152 (11743942_at) / RFU ECM1 (11717891_a_at) / Fold change /veh ECM1 (11717891_a_at) / RFU IL23R (11748794_a_at) / Fold change /veh IL23R (11748794_a_at) / RFU TNFAIP8L3 (11732012_x_at) / Fold change /veh TNFAIP8L3 (11732012_x_at) / RFU MBOAT4 (11741988_at) / Fold change /veh MBOAT4 (11741988_at) / RFU 11764193_at / Fold change /veh 11764193_at / RFU TMEM53 (11763286_at) / Fold change /veh TMEM53 (11763286_at) / RFU MAGEB2 (11727129_at) / Fold change /veh MAGEB2 (11727129_at) / RFU TMEM200A (11744735_a_at) / Fold change /veh TMEM200A (11744735_a_at) / RFU CCDC152 (11751479_a_at) / Fold change /veh CCDC152 (11751479_a_at) / RFU FAM211A (11726209_a_at) / Fold change /veh FAM211A (11726209_a_at) / RFU RGS16 (11746705_a_at) / Fold change /veh RGS16 (11746705_a_at) / RFU VCAN (11755009_s_at) / Fold change /veh VCAN (11755009_s_at) / RFU RHOB (11743442_s_at) / Fold change /veh RHOB (11743442_s_at) / RFU RGS16 (11720943_a_at) / Fold change /veh RGS16 (11720943_a_at) / RFU RGS16 (11720944_at) / Fold change /veh RGS16 (11720944_at) / RFU, VPS4B / Fold change vs veh, VPS4B / RFU, CREB1 / Fold change vs veh, CREB1 / RFU, DNAJC13 / Fold change vs veh, DNAJC13 / RFU, GNAQ / Fold change vs veh, GNAQ / RFU, CDK5R1 / Fold change vs veh, CDK5R1 / RFU, ZRANB3 / Fold change vs veh, ZRANB3 / RFU, CUL4A / Fold change vs veh, CUL4A / RFU, CCNY / Fold change vs veh, CCNY / RFU, UFL1 / Fold change vs veh, UFL1 / RFU, COG3 / Fold change vs veh, COG3 / RFU, DIAPH2 / Fold change vs veh, DIAPH2 / RFU, SKA2 / Fold change vs veh, SKA2 / RFU, AFF3 / Fold change vs veh, AFF3 / RFU, LMF1 / Fold change vs veh, LMF1 / RFU, IPO11 / Fold change vs veh, IPO11 / RFU, DFFB / Fold change vs veh, DFFB / RFU, FOXP1 / Fold change vs veh, FOXP1 / RFU, CARD8 / Fold change vs veh, CARD8 / RFU, STRN3 / Fold change vs veh, STRN3 / RFU, ADK / Fold change vs veh, ADK / RFU, RASSF2 / Fold change vs veh, RASSF2 / RFU, WIPF1 / Fold change vs veh, WIPF1 / RFU, LARP1B / Fold change vs veh, LARP1B / RFU, RASA1 / Fold change vs veh, RASA1 / RFU, RB1 / Fold change vs veh, RB1 / RFU, PPFIA1 / Fold change vs veh, PPFIA1 / RFU, MAT2A / Fold change vs veh, MAT2A / RFU, CCT5 / Fold change vs veh, CCT5 / RFU, WDR92 / Fold change vs veh, WDR92 / RFU, CUX1 / Fold change vs veh, CUX1 / RFU, TTC7A / Fold change vs veh, TTC7A / RFU, TMEM135 / Fold change vs veh, TMEM135 / RFU, DEPTOR / Fold change vs veh, DEPTOR / RFU, CPM / Fold change vs veh, CPM / RFU, DNAJB6 / Fold change vs veh, DNAJB6 / RFU, CACNA2D3 / Fold change vs veh, CACNA2D3 / RFU, DTX4 / Fold change vs veh, DTX4 / RFU, TFCP2 / Fold change vs veh, TFCP2 / RFU, GMCL1 /// GMCL1P1 / Fold change vs veh, GMCL1 /// GMCL1P1 / RFU, AEBP2 / Fold change vs veh, AEBP2 / RFU, SNHG1 /// SNORD22 /// SNORD25 /// SNORD26 /// SNORD27 /// SNORD28 /// SNORD29 /// SNORD31 / Fold change vs veh, SNHG1 /// SNORD22 /// SNORD25 /// SNORD26 /// SNORD27 /// SNORD28 /// SNORD29 /// SNORD31 / Fold change (Aza/veh), C12orf56 (ProbeSet 11735607_a_at) / Fold change (ACY-1035/veh), C12orf56 (ProbeSet 11735607_a_at) / Fold change (Aza/veh), FGFR1OP (ProbeSet 11751329_s_at) / Fold change (ACY-1035/veh), FGFR1OP (ProbeSet 11751329_s_at) / Fold change (Aza/veh), VPS36 (ProbeSet 11739960_a_at) / Fold change (ACY-1035/veh), VPS36 (ProbeSet 11739960_a_at) / RFU SYPL1 (11715823_x_at) / Fold change /veh SYPL1 (11715823_x_at) / RFU IGFBP7 (11715501_s_at) / Fold change /veh IGFBP7 (11715501_s_at) / RFU REEP3 (11722064_at) / Fold change /veh REEP3 (11722064_at) / RFU IGLL1 (11728026_x_at) / Fold change /veh IGLL1 (11728026_x_at): dose or concentration left out as unconfirmed. The settings on record: MV-4-11 cells, 48 hours.

As to `Nc1ncn([C@@H]2O[C@H](CO)[C@@H](O)[C@H]2O)c(=O)n1` [azacitidine], the “Fold change /veh KRTAP5-7 /// NADSYN1 (11734609_at)” value came out at 1.00.
